The term inhibition denotes the drop in the measured response relative to a control, in per cent.

Like-named read-outs stand apart in the source and are kept apart here.

Assay [1] relates to late components of human complement (C3-C9). Kind of assay: Test Code 035 (C3-C9 inhibitor), lysis of EAC 142. The following applies: in vitro; twofold serial dilution assay, higher well number indicates higher activity. Type of assay: biochemical. As to the method:
(§1) Percent inhibition is calculated by comparison with simultaneous controls.
(§2) **Activity in wells, a serial dilution assay; higher well number indicate
(§3) higher activity. The serial dilutions are twofold.

A further assay has as its target T1, activated human C1 (Homo sapiens, UniProt P09871).
T1 construct: fluid-phase C2 destruction with C4 present
Kind of assay: Test Code 026 (C1 inhibitor). Type of assay: biochemical. The following applies: in vitro; twofold serial dilution assay, higher well number indicates higher activity. As to the method: as §1, §2, §3

The test system of assay [2] is complement activity of guinea pig sera. Briefly: Guinea Pig Intraperitoneal Test (GPIP). Type of assay: in vivo. Conditions: Cavia porcellus, ip, 200 mg/kg i.p. The protocol: as §1
The test system of assay [3] is hereditary angioneurotic edema. The following applies: literature reports; cited from earlier work.
Assay [4] has as its system human serum total hemolytic complement activity. The following applies: in vitro and in vivo, judged by reduction in total hemolytic complement activity; Pathol. Biol. 25 (1977); cited from earlier work.

T1 sequence (P09871 16-688): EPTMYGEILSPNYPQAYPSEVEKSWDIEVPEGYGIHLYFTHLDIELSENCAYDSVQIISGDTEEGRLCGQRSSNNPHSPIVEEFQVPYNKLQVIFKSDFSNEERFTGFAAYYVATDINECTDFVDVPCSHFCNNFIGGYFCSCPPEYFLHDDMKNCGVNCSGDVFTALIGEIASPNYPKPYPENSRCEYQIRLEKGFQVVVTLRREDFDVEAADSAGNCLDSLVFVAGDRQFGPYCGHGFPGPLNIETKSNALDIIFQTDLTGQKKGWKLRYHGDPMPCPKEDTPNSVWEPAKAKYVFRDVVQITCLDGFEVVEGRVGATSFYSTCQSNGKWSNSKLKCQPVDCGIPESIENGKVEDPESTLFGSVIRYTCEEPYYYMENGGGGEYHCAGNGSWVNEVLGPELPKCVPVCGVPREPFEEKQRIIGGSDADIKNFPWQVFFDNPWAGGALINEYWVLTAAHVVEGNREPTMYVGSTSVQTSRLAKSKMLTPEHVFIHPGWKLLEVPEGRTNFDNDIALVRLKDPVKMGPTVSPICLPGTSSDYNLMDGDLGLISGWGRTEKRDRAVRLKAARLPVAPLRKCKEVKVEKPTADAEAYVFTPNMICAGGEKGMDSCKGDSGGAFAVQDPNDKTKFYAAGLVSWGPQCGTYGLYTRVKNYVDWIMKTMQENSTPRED
T1 sequence (P00736 18-705 partner): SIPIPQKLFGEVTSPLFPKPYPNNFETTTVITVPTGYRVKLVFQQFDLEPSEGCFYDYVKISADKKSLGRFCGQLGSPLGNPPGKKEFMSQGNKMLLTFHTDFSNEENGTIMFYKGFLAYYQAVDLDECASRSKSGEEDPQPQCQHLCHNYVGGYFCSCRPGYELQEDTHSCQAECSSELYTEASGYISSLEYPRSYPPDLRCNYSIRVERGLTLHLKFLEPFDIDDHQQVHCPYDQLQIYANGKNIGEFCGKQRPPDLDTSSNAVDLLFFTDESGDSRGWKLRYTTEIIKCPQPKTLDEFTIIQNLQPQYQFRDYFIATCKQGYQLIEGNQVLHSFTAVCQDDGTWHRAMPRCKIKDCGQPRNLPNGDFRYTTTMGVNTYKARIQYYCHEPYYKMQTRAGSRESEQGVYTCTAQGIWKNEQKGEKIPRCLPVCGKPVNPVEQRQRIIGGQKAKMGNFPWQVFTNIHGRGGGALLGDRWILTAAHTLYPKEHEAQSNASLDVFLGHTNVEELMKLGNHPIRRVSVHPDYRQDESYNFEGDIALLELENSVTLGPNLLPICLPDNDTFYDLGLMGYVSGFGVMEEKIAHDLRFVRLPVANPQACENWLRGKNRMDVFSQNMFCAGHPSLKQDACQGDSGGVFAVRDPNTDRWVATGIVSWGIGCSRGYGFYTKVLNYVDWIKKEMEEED
T1 sequence (P02745 23-245 partner): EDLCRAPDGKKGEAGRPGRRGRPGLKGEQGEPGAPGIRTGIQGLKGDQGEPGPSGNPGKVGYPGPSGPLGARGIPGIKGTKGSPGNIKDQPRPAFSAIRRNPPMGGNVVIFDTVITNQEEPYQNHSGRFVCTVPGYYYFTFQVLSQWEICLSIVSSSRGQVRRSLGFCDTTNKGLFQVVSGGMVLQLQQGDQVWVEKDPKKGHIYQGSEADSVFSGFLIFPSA
T1 sequence (P02746 28-253 partner): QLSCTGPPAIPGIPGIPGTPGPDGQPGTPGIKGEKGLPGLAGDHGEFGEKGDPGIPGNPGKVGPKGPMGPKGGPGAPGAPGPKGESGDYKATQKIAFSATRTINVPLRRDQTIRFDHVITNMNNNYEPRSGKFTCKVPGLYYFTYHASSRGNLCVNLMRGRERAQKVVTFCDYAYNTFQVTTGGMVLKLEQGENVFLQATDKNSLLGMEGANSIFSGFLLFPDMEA
T1 sequence (P02747 29-245 partner): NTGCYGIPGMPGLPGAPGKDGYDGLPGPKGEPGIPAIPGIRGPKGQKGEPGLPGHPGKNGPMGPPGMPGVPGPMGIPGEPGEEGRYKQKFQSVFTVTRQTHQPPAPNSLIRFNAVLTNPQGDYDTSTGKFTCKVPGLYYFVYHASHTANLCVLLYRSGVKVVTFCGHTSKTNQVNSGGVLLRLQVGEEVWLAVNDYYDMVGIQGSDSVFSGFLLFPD

For `O=C(Nc1ccc(S[C@@H]2O[C@H](COS(=O)(=O)O)[C@@H](O[C@H]3O[C@H](COS(=O)(=O)O)[C@@H](OS(=O)(=O)O)[C@H](OS(=O)(=O)O)[C@H]3OS(=O)(=O)O)[C@H](OS(=O)(=O)O)[C@H]2OS(=O)(=O)O)cc1)c1cc(C(=O)Nc2ccc(S[C@@H]3O[C@H](COS(=O)(=O)O)[C@@H](O[C@H]4O[C@H](COS(=O)(=O)O)[C@@H](OS(=O)(=O)O)[C@H](OS(=O)(=O)O)[C@H]4OS(=O)(=O)O)[C@H](OS(=O)(=O)O)[C@H]3OS(=O)(=O)O)cc2)cc(C(=O)Nc2ccc(S[C@@H]3O[C@H](COS(=O)(=O)O)[C@@H](O[C@H]4O[C@H](COS(=O)(=O)O)[C@@H](OS(=O)(=O)O)[C@H](OS(=O)(=O)O)[C@H]4OS(=O)(=O)O)[C@H](OS(=O)(=O)O)[C@H]3OS(=O)(=O)O)cc2)c1.[Na].[Na].[Na].[Na].[Na].[Na].[Na].[Na].[Na].[Na].[Na].[Na].[Na].[Na].[Na].[Na].[Na].[Na].[Na].[Na].[Na]` [Heneicosasodium N,N',N"-tris[4-[[2,3,6-tri-O-sulfo-4-O-(2,3,4,6-tetra-O-sulfo-α-D-glucopyranosyl)-β-D-glucopyranosyl]thio]phenyl]-1,3,5-benzenetricarboxamide], the “C-Late 035 Wells” value in assay [1] is on record as 2 Wells. Moreover, the “C-1 026 Wells” value on activated human C1 is 8 Wells.
As for `O=S(=O)(O)OC[C@H]1O[C@@H](Sc2ccc(NS(=O)(=O)c3cc(S(=O)(=O)Nc4ccc(S[C@@H]5O[C@H](COS(=O)(=O)O)[C@@H](O[C@H]6O[C@H](COS(=O)(=O)O)[C@@H](OS(=O)(=O)O)[C@H](OS(=O)(=O)O)[C@H]6OS(=O)(=O)O)[C@H](OS(=O)(=O)O)[C@H]5OS(=O)(=O)O)cc4)cc(S(=O)(=O)Nc4ccc(S[C@@H]5O[C@H](COS(=O)(=O)O)[C@@H](O[C@H]6O[C@H](COS(=O)(=O)O)[C@@H](OS(=O)(=O)O)[C@H](OS(=O)(=O)O)[C@H]6OS(=O)(=O)O)[C@H](OS(=O)(=O)O)[C@H]5OS(=O)(=O)O)cc4)c3)cc2)[C@H](OS(=O)(=O)O)[C@@H](OS(=O)(=O)O)[C@@H]1O[C@H]1O[C@H](COS(=O)(=O)O)[C@@H](OS(=O)(=O)O)[C@H](OS(=O)(=O)O)[C@H]1OS(=O)(=O)O.[Na].[Na].[Na].[Na].[Na].[Na].[Na].[Na].[Na].[Na].[Na].[Na].[Na].[Na].[Na].[Na].[Na].[Na].[Na].[Na].[Na]` [Heneicosasodium N,N',N"-tris[4-[[2,3,6-tri-O-sulfo-4-O-(2,3,4,6-tetra-O-sulfo-α-D-glucopyranosyl)-β-D-glucopyranosyl]thio]phenyl]-1,3,5-benzenetrisulfonamide], the “C-Late 035 Wells” value in assay [1] stood at 3 Wells. The “C-1 026 Wells” value on activated human C1 is given as 9 Wells.
Regarding `O=S(=O)(O)OC[C@H]1O[C@@H](Sc2ccc(NS(=O)(=O)c3cc(S(=O)(=O)Nc4ccc(S[C@@H]5O[C@H](COS(=O)(=O)O)[C@@H](O[C@@H]6O[C@H](COS(=O)(=O)O)[C@@H](OS(=O)(=O)O)[C@H](OS(=O)(=O)O)[C@H]6OS(=O)(=O)O)[C@H](OS(=O)(=O)O)[C@H]5OS(=O)(=O)O)cc4)cc(S(=O)(=O)Nc4ccc(S[C@@H]5O[C@H](COS(=O)(=O)O)[C@@H](O[C@@H]6O[C@H](COS(=O)(=O)O)[C@@H](OS(=O)(=O)O)[C@H](OS(=O)(=O)O)[C@H]6OS(=O)(=O)O)[C@H](OS(=O)(=O)O)[C@H]5OS(=O)(=O)O)cc4)c3)cc2)[C@H](OS(=O)(=O)O)[C@@H](OS(=O)(=O)O)[C@@H]1O[C@@H]1O[C@H](COS(=O)(=O)O)[C@@H](OS(=O)(=O)O)[C@H](OS(=O)(=O)O)[C@H]1OS(=O)(=O)O.[Na].[Na].[Na].[Na].[Na].[Na].[Na].[Na].[Na].[Na].[Na].[Na].[Na].[Na].[Na].[Na].[Na].[Na].[Na].[Na].[Na]` [Heneicosasodium N,N',N"-tris[4-[[2,3,6-tri-O-sulfo-4-O-(2,3,4,6-tetra-O-sulfo-β-D-glucopyranosyl)-β-D-glucopyranosyl]thio]phenyl]-1,3,5-benzenetrisulfonamide], the “C-Late 035 Wells” value in assay [1] amounted to 3 Wells. Also, at activated human C1, the “C-1 026 Wells” value was 12 Wells.
In the case of `O=C(Nc1ccc(S[C@@H]2O[C@H](COS(=O)(=O)O)[C@@H](O[C@H]3O[C@H](COS(=O)(=O)O)[C@@H](OS(=O)(=O)O)[C@H](OS(=O)(=O)O)[C@H]3OS(=O)(=O)O)[C@H](OS(=O)(=O)O)[C@H]2OS(=O)(=O)O)cc1)c1ccc(C(=O)Nc2ccc(S[C@@H]3O[C@H](COS(=O)(=O)O)[C@@H](O[C@H]4O[C@H](COS(=O)(=O)O)[C@@H](OS(=O)(=O)O)[C@H](OS(=O)(=O)O)[C@H]4OS(=O)(=O)O)[C@H](OS(=O)(=O)O)[C@H]3OS(=O)(=O)O)cc2)cc1.[Na].[Na].[Na].[Na].[Na].[Na].[Na].[Na].[Na].[Na].[Na].[Na].[Na].[Na]` [Tetradecasodium N,N'-bis[4-[[2,3,6-tri-O-sulfo-4-O-(2,3,4,6-tetra-O-sulfo-α-D-glucopyranosyl)-β-D-glucopyranosyl]thio]phenyl]-1,4-benzenedicarboxamide], the inhibition at 200 mg/kg in assay [2] (serum complement 2 hours after injection, read-out: In vivo Activity (Guinea Pig % Inhibition) Intraperitoneal, 2 hours) worked out at 87%; in assay [2] (serum complement 6 hours after injection, read-out: In vivo Activity (Guinea Pig % Inhibition) Intraperitoneal, 6 hours), 90%; in assay [2] (serum complement 24 hours after injection, read-out: In vivo Activity (Guinea Pig % Inhibition) Intraperitoneal, 24 hours) it was 62%. Besides, the “C-Late 035 Wells” value in assay [1] is recorded as 2 Wells. For the same compound, the “C-1 026 Wells” value at activated human C1 amounted to 9 Wells.
For `NCCCCCC(=O)O` [epsilon-aminocaproic acid], the “treatment of hereditary angioneurotic edema” value in assay [3] is “used with success”.
Turning to `NC[C@H]1CC[C@H](C(=O)O)CC1` [tranexamic acid], the “treatment of hereditary angioneurotic edema” value in assay [3] is on record as “used with success”.
As to pentosan-polysulfoester, in assay [4], the “anticomplementary activity on human serum” value is given as “anticomplementary activity”.

The record behind these values is patent US4435387A, “Poly-cation salts of bis (or tris) 4-O-polyhexose-thio-arylene sulfate derivatives” (American Cyanamid Company, priority 1982, dated 1984).
